Assay results as given in patent publication US20240132449A1, “HETEROCYCLIC COMPOUNDS AND METHODS OF USE THEREOF” (1cBio, Inc., priority 2022, published 2024).
Structures can show the parent of a compound that is named as a salt.

Tests used:
[1] = tested on: DLD-1 wild-type colorectal adenocarcinoma cells; assay: Cell viability assay (Cell Titer-Glo), DLD-1 wild-type; format: cell-based; conditions: Homo sapiens, DLD-1, 168 h, 7 days incubation; for inhibition at 10 µM: read-out: DLD-1 wild-type % inh at 10 μM; for IC50: 50 cells/well
Procedure: (§1) Compounds of the present disclosure were tested for their effects on the viability of cancer cells. DLD-1 wild-type and DLD-1 BRCA2(−/−) colorectal adenocarcinoma cells, an isogenic pair of cell lines differing in the presence and absence, respectively, of both BRCA2 alleles, were used. The cells were harvested during the logarithmic growth period, counted, and seeded at 50 cells/well for DLD-1 wild-type and 200 cells/well for DLD-1 BRCA2(−/−) in a 384-well cell culture plate. After seeding, cells were incubated at 37° C., 5% CO2 overnight. Cells were treated with serially diluted test compounds at 10 concentrations (e.g., from 1.5 nM-30 μM) for generation of dose response curves, or at a single concentration. The plate was further incubated for another 7 days in a humidified incubator at 37° C. and 5% CO2. Cell viability was assessed by luminescence measurement after addition of Cell Titer-Glo reagent (Promega, Madison, Wis.) according to the manufacturer's instructions. Cell viability IC50 values were calculated using XLFit, equation 201: y=A+((B−A)/(1+((x/C)^D))), where A=bottom, B=top, C=IC50, and D=slope. IC50 values are shown in Table B and are presented in ranges, in which “+++”<300 nM, 300 nM≤“++”<3000 nM, and “+”≥3000 nM. Values for percent inhibition at 10 μM are also shown in Table B and are presented in ranges, in which “***”≥67%, 33%≤“**”<67%, and “*”<33%. Effects of the test compounds on the viability of other cell lines such as MDA-MB-436, MDA-MB-231, SUM149PT, HCC1395, and UWB1.289 are determined in an analogous method.

[2] = tested on: DLD-1 BRCA2(−/−) colorectal adenocarcinoma cells; assay: Cell viability assay (Cell Titer-Glo), DLD-1 BRCA2(−/−); format: cell-based; conditions: Homo sapiens, DLD-1, 168 h; 7 days incubation, 200 cells/well
Procedure: as §1

PARP1 = PARP1 (Homo sapiens, UniProt P09874); assay: PARP1 fluorescence polarization binding assay; conditions: binding IC50, GST-tagged PARP1 20 nM, PARPi-FL 3 nM
PARP1, sequence (P09874 whole entry): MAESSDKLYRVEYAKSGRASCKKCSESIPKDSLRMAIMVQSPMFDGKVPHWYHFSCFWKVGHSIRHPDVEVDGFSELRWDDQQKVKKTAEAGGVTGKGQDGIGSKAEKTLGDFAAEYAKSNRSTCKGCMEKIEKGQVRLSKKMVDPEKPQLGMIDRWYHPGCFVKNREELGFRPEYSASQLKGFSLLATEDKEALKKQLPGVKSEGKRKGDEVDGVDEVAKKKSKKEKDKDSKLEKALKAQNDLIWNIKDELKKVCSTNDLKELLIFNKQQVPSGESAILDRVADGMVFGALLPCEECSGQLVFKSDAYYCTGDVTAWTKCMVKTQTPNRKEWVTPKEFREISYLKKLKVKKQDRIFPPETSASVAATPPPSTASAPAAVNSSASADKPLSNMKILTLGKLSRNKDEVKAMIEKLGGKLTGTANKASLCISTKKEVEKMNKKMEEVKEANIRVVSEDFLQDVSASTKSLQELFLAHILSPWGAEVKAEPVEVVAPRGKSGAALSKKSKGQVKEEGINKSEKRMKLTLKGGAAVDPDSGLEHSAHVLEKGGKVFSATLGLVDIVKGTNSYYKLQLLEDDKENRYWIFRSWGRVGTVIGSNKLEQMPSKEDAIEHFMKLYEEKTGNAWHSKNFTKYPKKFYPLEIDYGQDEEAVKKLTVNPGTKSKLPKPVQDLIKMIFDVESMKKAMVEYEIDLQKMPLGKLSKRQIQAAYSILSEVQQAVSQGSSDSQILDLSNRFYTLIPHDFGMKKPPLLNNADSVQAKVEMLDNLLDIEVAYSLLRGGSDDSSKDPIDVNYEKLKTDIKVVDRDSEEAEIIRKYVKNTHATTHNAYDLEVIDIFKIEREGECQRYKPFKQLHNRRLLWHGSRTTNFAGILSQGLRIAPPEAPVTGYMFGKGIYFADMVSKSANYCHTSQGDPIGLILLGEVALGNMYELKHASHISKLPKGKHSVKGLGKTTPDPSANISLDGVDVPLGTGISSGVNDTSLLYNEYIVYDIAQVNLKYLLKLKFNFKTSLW
Procedure: Compounds of the present disclosure were tested in a PARP1 fluorescence polarization binding assay at Pharmaron (Beijing, P.R.China). In this biochemical assay, binding of test compound to recombinant human PARP1 reduces the amount of binding of a fluorescent probe, and consequently reduces the detected level of fluorescence polarization. Test compound stock solutions were prepared in DMSO and then serially diluted into 10 concentrations by 3-fold dilution in a 384-well plate using a TECAN EVO200. 60 nL of each dilution was transferred to the plate using an Echo550 (Labcyte), and then 10 μL 40 nM GST-tagged PARP1 (BPS Bioscience, Cat #80501), diluted in assay buffer (50 mM Tris pH 8.0, 0.001% Triton X-100, 10 mM MgCl2, 150 mM NaCl), was added to the plate. After a centrifugation at 1000 rpm for 1 min, the assay plate was incubated for 30 min at RT. 10 μL 6 nM PARPi-FL (TOCRIS, Cat #6461), diluted using assay buffer, was then added to the plate. The final concentrations of PARP1 and PARPi-FL were 20 nM and 3 nM, respectively, in a total volume of 20 μL. After a centrifugation at 1000 rpm for 1 min, the assay plate was incubated for 4 h at RT. Samples in each well were read using an Envision instrument (Perkin-Elmer; Ex=480 nm Em=FITC FP-P pol 535 nm & FITC FP-S pol 535 nm). Percent inhibition was calculated from mP values using Inhibition (%)=[1−(mPc−mPL)/(mPH−mPL)]×100%, where mPc, mPL, and mPH are the mP values of test compound, Low controls, and High controls, respectively. Binding IC50 values were calculated using XLFit (equation 201: y=A+((B−A)/(1+((x/C)^D))), where A=bottom, B=top, C=IC50, and D=slope) with a floating top and bottom for curves. Binding IC50 values are shown in Table A and are presented in ranges, in which “+++”<100 nM, 100 nM≤“++”<3000 nM, and “+”≥3000 nM.

recombinant human PARP2 = recombinant human PARP2 (Homo sapiens, UniProt Q9UGN5); assay: PARP2 fluorescence polarization binding assay; conditions: for IC50: binding IC50, GST-tagged PARP2 20 nM, PARPi-FL 3 nM; for inhibition at 10 µM: read-out: PARP2 % inh at 10 μM
recombinant human PARP2, sequence (Q9UGN5 whole entry): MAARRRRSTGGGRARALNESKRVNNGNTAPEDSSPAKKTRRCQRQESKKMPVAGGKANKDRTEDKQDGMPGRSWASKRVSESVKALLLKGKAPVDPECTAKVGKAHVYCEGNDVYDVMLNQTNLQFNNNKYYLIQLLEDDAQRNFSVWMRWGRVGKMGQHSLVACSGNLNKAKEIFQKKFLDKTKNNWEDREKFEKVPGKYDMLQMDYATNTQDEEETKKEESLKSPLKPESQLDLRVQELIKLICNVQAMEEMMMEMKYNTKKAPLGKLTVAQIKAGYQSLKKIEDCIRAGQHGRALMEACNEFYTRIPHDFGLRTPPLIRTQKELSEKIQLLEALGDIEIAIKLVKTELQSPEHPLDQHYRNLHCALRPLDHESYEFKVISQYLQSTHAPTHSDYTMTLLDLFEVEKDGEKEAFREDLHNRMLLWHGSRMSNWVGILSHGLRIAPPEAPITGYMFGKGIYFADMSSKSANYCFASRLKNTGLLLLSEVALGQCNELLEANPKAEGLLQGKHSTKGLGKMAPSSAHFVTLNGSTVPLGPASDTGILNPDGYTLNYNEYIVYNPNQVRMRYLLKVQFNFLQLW
Procedure: Compounds of the present disclosure were tested in a PARP2 fluorescence polarization binding assay at Pharmaron (Beijing, P.R. China). In this biochemical assay, binding of test compound to recombinant human PARP2 reduces the amount of binding of a fluorescent probe, and consequently reduces the detected level of fluorescence polarization. Test compound stock solutions were prepared in DMSO and then serially diluted into 10 concentrations by 3-fold dilution in a 384-well plate using a TECAN EVO200. Alternatively, a single concentration was prepared. 60 nL of each dilution was transferred to the plate using an Echo550 (Labcyte), and then 10 μL 40 nM GST-tagged PARP2 (BPS Bioscience, Cat #80502), diluted in assay buffer (50 mM Tris pH 8.0, 0.001% Triton X-100, 10 mM MgCl2, 150 mM NaCl), was added to the plate. After a centrifugation at 1000 rpm for 1 min, the assay plate was incubated for 30 min at RT. 10 μL 6 nM PARPi-FL (TOCRIS, Cat #6461), diluted using assay buffer, was then added to the plate. […] After a centrifugation at 1000 rpm for 1 min, the assay plate was incubated for 4 h at RT. Samples in each well were read using an Envision instrument (Perkin-Elmer; Ex=480 nm Em=FITC FP-P pol 535 nm & FITC FP-S pol 535 nm). […] Binding IC50 values were calculated using XLFit (equation 201: […])^D))), where A=bottom, B=top, C=IC50, and D=slope) with a floating top and bottom for curves.

Row | SMILES | IC50 [1] [nM] | IC50 [2] [nM] | IC50 (PARP1) [nM] | IC50 (recombinant human PARP2) [µM] | inhibition at 10 µM (recombinant human PARP2) [%] | inhibition at 10 µM [1] [%]
1 | CCn1c(=O)[nH]c2cc(CN3CCN(c4ccc(C(=O)NC)nc4C)CC3)cc(Br)c2c1=S [Compound 501, 5-(4-((5-bromo-3-ethyl-2-oxo-4-thioxo-1,2,3,4-tetrahydroquinazolin-7-yl)methyl)piperazin-1-yl)-N,6-dimethylpicolinamide formate] | > 3000 | 300 to 3000 | < 100 | > 3 | 33 to 67 | < 33
2 | CCn1c(=O)[nH]c2cc(CN3CCN(c4ccc(C(=O)NC)nc4C)CC3)c(Br)cc2c1=S [Compound 504, 5-(4-((6-bromo-3-ethyl-2-oxo-4-thioxo-1,2,3,4-tetrahydroquinazolin-7-yl)methyl)piperazin-1-yl)-N,6-dimethylpicolinamide] | > 3000 | 300 to 3000 | 100 to 3000 | > 3 | 33 to 67 | < 33
3 | CCn1c(=O)[nH]c2cc(CN3CCN(c4ccc(C(=O)NC)nc4C)CC3)c(C#N)cc2c1=S [Compound 505, 5-(4-((6-cyano-3-ethyl-2-oxo-4-thioxo-1,2,3,4-tetrahydroquinazolin-7-yl)methyl)piperazin-1-yl)-N,6-dimethylpicolinamide trifluoroacetate] | > 3000 | 300 to 3000 | < 100 | > 3 | 33 to 67 | < 33
4 | CCn1c(=O)[nH]c2cc(C=C3CCN(c4ccc(C(=O)NC)nc4C)CC3)ccc2c1=S [Compound 507, 5-(4-((3-ethyl-2-oxo-4-thioxo-1,2,3,4-tetrahydroquinazolin-7-yl)methylene)piperidin-1-yl)-N,6-dimethylpicolinamide] | > 3000 | > 3000 | < 100 | > 3 | 33 to 67 | > 67

More lines, main results first:

Row | IC50 [1] [nM] | IC50 [2] [nM] | IC50 (PARP1) [nM] | IC50 (recombinant human PARP2) [µM] | inhibition at 10 µM (recombinant human PARP2) [%] | SMILES | inhibition at 10 µM [1] [%]
5 | > 3000 | > 3000 | < 100 | > 3 | 33 to 67 | CCn1c(=O)[nH]c2cc(CN3CCN(c4ccc(C(N)=O)nc4C)CC3)sc2c1=O [Compound 516, 5-(4-((3-ethyl-2,4-dioxo-1,2,3,4-tetrahydrothieno[3,2-d]pyrimidin-6-yl)methyl)piperazin-1-yl)-6-methylpicolinamide] | < 33
6 | – | > 3000 | < 100 | > 3 | 33 to 67 | CCn1c(=O)[nH]c2cc(CN3CCN4c5ccc(C(=O)NC)nc5OC[C@H]4C3)sc2c1=O [Compound 524, (R)-3-((3-ethyl-2,4-dioxo-1,2,3,4-tetrahydrothieno[3,2-d]pyrimidin-6-yl)methyl)-N-methyl-1,2,3,4,4a,5-hexahydropyrazino[1,2-d]pyrido[2,3-b][1,4]oxazine-8-carboxamide] | < 33
